Source: patent US20250177425A1, “SAIKOSAPONIN C AS COMPOSITION FOR TREATING OR PREVENTING AGE-RELATED VASCULAR DISEASES INCLUDING ARTERIOSCLEROSIS” (AGINGTARGET, INC., priority 2022, published 2025)

Key:
Sirt1 in HUVEC = experiment: Sirt1 activity assay kit and Western blotting (expression, phosphorylation); format: cell-based, human; conditions: 5 μM and 20 μM pretreatment 2 hours, 33 mM high glucose 36 hours, dose-dependent
Experimental: (§1) Similar to Experimental Example 1, a high-fat diet evaluation system at the cellular level was established.
(§2) Specifically, two types of vascular endothelial cells, namely, HUVEC and HPAEC cells, were pretreated with Saikosaponin C at concentrations of 5 μM and 20 μM for 2 hours, and then treated with high glucose at a concentration of 33 mM for 36 hours. Then, Sirt1 activity, protein expression and phosphorylation levels were analyzed.
(§3) Sirt1 activity was measured using the Sirt1 Activity Assay Kit (FIG. 7A and FIG. 7B), and Sirt1 protein expression and phosphorylation (Ser27, Ser47) were measured through Western blotting (FIG. 7C and FIG. 7D).

Sirt1 in HPAEC = experiment: as above; format: cell-based, human; conditions: 5 μM and 20 μM pretreatment 2 hours, 33 mM high glucose 36 hours, dose-dependent
Experimental: as §1, §2, §3

HPAEC [1] = experiment: SA-β-gal staining, high glucose-induced senescence; format: cell-based, human; conditions: 5 μM and 20 μM pretreatment 2 hours, 33 mM high glucose 72 hours, dose-dependent
Experimental: as §1
(§4) Specifically, two types of vascular endothelial cells, namely, HUVEC and HPAEC cells, were pretreated with Saikosaponin C at concentrations of 5 μM and 20 μM for 2 hours, and then treated with high glucose at a concentration of 33 mM for 72 hours (for SA-β-gal staining) or 48 hours (for vascular senescence marker protein analysis). Then, the degree of cellular senescence was measured through SA-β-gal staining and measured as the ratio of the total cells to cells stained in blue (SA-β-gal positive). In addition, the expression of vascular senescence marker proteins such as PAI-1, ICAM-1, and VCAM-1 was analyzed.
(§5) Specifically, the senescence of vascular endothelial cells was evaluated by SA-β-gal staining to measure the activity of β-galactosidase, which is an enzyme present in the lysosome, an organelle within the cell (FIG. 3C and FIG. 3D) and this was represented as a graph (FIG. 3A and FIG. 3B). In addition, FIGS. 3E and 3F show the results of Western blotting to determine the expression of vascular senescence marker proteins such as PAI-1, ICAM-1, and VCAM-1 in two types of vascular endothelial cells (HUVEC, HPAEC).

HUVEC [2] = experiment: SA-β-gal staining, high glucose-induced senescence; format: cell-based, human; conditions: 5 μM and 20 μM pretreatment 2 hours, 33 mM high glucose 72 hours, dose-dependent
Experimental: as §1, §4, §5

NLRP3 inflammasome = NLRP3 inflammasome (Homo sapiens, UniProt Q96P20); experiment: NLRP3 inflammasome activity: IL-1β secretion (Solid Phase Sandwich ELISA); conditions: PMA-differentiated THP-1 macrophages; 20 μM pretreatment 2 hours, MSU 200 μg/ml 6 hours
HUVEC [3] = experiment: Mechanism study: SA-β-gal staining with NOS and Sirt1 inhibitors; format: cell-based, human; conditions: 20 μM pretreatment 2 hours, 33 mM high glucose 72 hours
Experimental: Similar to Experimental Example 1, a high-fat diet evaluation system at the cellular level was established. Specifically, […], which are vascular endothelial cells, were pretreated with Saikosaponin C at a concentration of 20 μM for 2 hours, and then treated with high glucose at a concentration of 33 mM for 72 hours (for SA-β-gal staining) or 36 hours (for the analysis of enzyme activity of NOS and Sirt1). Then, SA-β-gal staining, NOS enzyme activity, and Sirt1 enzyme activity were analyzed. To analyze whether or not NOS and Sirt1 protein are involved in the anti-vascular aging effect of Saikosaponin C and the relationship between NOS and Sirt1 protein, L-NG-nitro arginine methyl ester (L-NAME) (5 mM), an inhibitor of NOS, and EX-527 (10 μM), an inhibitor of Sirt1 protein, were used. […] The senescence of vascular endothelial cells was assessed through intracellular SA-β-gal staining (FIG. 8A). The activities of NOS (FIG. 8B) and Sirt1 protein (FIG. 8C) were measured using the NOS Activity Assay Kit and the Sirt1 Activity Assay Kit, respectively.

HUVEC [4] = experiment: Monocyte-endothelial cell adhesion caused by TNF-α (Calcein AM-labeled THP-1); format: cell-based, human; conditions: 5 μM and 20 μM pretreatment 2 hours, TNF-α 20 ng/ml 8 hours, THP-1 monocytes
Experimental: Specifically, two types of vascular endothelial cells, namely, HUVEC (human umbilical vein endothelial cells) and HCAEC (human coronary artery endothelial cells), were pretreated with Saikosaponin C at concentrations of 5 μM and 20 μM for 2 hours, and then treated with TNF-α (20 ng/ml) for 8 hours. Then, adhesion of monocyte-vascular endothelial cell and expression of cell adhesion molecules (ICAM-1, VCAM-1) of vascular endothelial cells were observed. […] The adhesion of monocyte-endothelial cells was evaluated by imaging analysis using a confocal microscope and fluorescence analysis using a microplate reader, and expression of adhesion proteins (ICAM-1 and VCAM-1) was evaluated by Western blotting.
Calcein AM fluorescence was analyzed using a confocal microscope and a microplate reader, and the expression of cell adhesion proteins (ICAM-1, VCAM-1) were evaluated through Western blotting.
FIGS. 9A and 9B show the results of analysis of monocyte-endothelial cell adhesion in two types of vascular endothelial cells (HUVEC, HCAEC) using a confocal microscope, and FIGS. 9C and 9D show the results of analysis of Calcein AM fluorescence (at an excitation wavelength of 488 nm, and at an emission wavelength of 517 nm) in the same experiment using a microplate reader. […]

HPAEC [5] = experiment: Fluorescence image analysis of high glucose-induced ROS generation; format: cell-based, human; conditions: 5 μM and 20 μM pretreatment 2 hours, 33 mM high glucose 24 hours, dose-dependent
Experimental: as §1
(§6) Specifically, two types of vascular endothelial cells, namely, HUVEC and HPAEC cells, were pretreated with Saikosaponin C at concentrations of 5 μM and 20 μM for 2 hours, and then treated with high glucose at a concentration of 33 mM for 24 hours. Then, hydrogen peroxide (H2O2) and superoxide anion (O2^⋅−) generated in the cytoplasm and mitochondria were measured using each fluorescent probe. In addition, samples treated with 100 μM hydrogen peroxide (a ROS-inducing agent) for 1 hour and then treated for an additional 23 hours after medium change were used as positive control groups.
(§7) Different analytical reagents were used depending on the type of ROS and the intracellular location where they were generated. Specifically, cytosolic hydrogen peroxide, cytosolic superoxide anion, mitochondrial hydrogen peroxide, and mitochondrial superoxide anion were measured using H2DCFDA (2,7-dichlorodihydrofluorescein diacetate), DHE (dihydroethidium), DHR (dihydrorhodamine 123), and Mito-SOX reagents, respectively. The H2DCFDA (1 μM, 45 min staining), DHE (10 µM, 60 min staining), DHR (20 µM, 30 min staining), and Mito-SOX (5 μM, 10 min staining) were used as ROS-specific fluorescent probes for fluorescence image analysis.

HUVEC [6] = experiment: as above; format: cell-based, human; conditions: 5 μM and 20 μM pretreatment 2 hours, 33 mM high glucose 24 hours, dose-dependent
Experimental: as §1, §6, §7

NLRP3 inflammasome, sequence (Q96P20 whole entry): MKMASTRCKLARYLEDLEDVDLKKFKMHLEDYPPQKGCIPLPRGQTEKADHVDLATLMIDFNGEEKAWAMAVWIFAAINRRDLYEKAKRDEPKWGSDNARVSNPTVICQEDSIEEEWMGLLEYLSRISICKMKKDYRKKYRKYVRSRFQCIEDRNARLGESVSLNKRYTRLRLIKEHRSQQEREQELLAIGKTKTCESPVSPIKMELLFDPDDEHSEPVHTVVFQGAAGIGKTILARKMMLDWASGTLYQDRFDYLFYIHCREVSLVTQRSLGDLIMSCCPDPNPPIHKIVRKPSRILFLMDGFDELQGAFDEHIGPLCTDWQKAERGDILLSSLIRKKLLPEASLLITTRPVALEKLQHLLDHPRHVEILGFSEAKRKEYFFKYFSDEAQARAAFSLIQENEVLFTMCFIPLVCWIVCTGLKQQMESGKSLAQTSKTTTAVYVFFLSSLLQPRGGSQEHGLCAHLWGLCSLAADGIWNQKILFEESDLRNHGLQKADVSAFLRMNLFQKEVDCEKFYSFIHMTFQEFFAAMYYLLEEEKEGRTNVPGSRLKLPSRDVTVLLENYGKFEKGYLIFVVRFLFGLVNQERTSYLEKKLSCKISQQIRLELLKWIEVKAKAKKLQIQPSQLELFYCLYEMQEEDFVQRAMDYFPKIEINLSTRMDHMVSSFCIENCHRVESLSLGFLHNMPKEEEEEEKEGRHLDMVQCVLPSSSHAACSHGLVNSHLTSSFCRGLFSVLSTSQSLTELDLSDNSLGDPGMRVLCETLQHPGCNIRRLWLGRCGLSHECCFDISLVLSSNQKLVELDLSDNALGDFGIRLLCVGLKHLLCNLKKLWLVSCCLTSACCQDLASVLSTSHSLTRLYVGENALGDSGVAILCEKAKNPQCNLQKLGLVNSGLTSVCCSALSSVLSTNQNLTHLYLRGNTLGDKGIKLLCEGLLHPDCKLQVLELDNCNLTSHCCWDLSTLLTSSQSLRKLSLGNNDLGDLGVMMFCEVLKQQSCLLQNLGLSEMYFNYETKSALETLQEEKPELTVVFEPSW

CC1O[C@@H](O[C@@H]2C(CO[C@@H]3OC(CO)[C@@H](O)C(O)C3O)O[C@@H](O[C@H]3CC[C@]4(C)[C@H]5C=C[C@]67OC[C@@]8(CCC(C)(C)C[C@H]86)[C@@H](O)C[C@@]7(C)[C@]5(C)CC[C@H]4C3(C)C)C(O)C2O)C(O)C(O)[C@H]1O (stereo partly drawn) [Saikosaponin C]
high glucose-induced decrease in Sirt1 enzyme activity, protein expression, and phosphorylation (Sirt1 in HUVEC): significantly alleviated | high glucose-induced decrease in Sirt1 enzyme activity, protein expression, and phosphorylation (Sirt1 in HPAEC): significantly alleviated | high glucose-induced SA-β-gal positive cells (HPAEC [1]): significantly reduced | high glucose-induced SA-β-gal positive cells (HUVEC [2]): significantly reduced | IL-1β secretion (NLRP3 inflammasome): inhibited | high glucose-induced SA-β-gal positive HUVEC cells (HUVEC [3]): reduced | monocyte-endothelial cell adhesion caused by TNF-α (HUVEC [4]): inhibited | high glucose-induced ROS generation (cytosolic and mitochondrial hydrogen peroxide and superoxide anion) (HPAEC [5]): significantly suppressed | high glucose-induced ROS generation (cytosolic and mitochondrial hydrogen peroxide and superoxide anion) (HUVEC [6]): significantly suppressed
